Experimental data published in patent publication US20140088144A1, “INHIBITING MICROBIAL INFECTIONS” (THE UNIVERSITY OF KANSAS, priority 2012, published 2014).

Tests used:
[1] = biological target: VirF (Shigella flexneri, UniProt P0A2T1); experiment: % Inhibition at 82.5 μM, VirF; type: cell-based; details: for inhibition at 82.5 µM: read-out: % Inhibition at 82.5 μM VirF, 82.5 μM
[2] = biological target: T1, RhaS (Escherichia coli, UniProt P09377); experiment: % Inhibition at 82.5 μM, RhaS; type: cell-based, E. coli
T1 sequence (P09377 whole entry): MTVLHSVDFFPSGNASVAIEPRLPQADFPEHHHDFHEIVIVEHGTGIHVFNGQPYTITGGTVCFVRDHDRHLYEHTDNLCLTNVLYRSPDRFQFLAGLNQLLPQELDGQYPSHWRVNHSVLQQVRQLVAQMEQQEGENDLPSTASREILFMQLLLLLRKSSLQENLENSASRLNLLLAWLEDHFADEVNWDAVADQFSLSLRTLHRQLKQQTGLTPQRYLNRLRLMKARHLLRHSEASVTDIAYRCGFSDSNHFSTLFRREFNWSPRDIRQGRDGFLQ

[3] = biological target: Rns (Escherichia coli, UniProt P16114); experiment: % Inhibition at 82.5 μM, Rns; type: cell-based, Enterotoxigenic E. coli; details: for inhibition at 82.5 µM: read-out: % Inhibition at 82.5 μM Rns
Chain of Rns (P16114 whole entry, the tested form may be a part): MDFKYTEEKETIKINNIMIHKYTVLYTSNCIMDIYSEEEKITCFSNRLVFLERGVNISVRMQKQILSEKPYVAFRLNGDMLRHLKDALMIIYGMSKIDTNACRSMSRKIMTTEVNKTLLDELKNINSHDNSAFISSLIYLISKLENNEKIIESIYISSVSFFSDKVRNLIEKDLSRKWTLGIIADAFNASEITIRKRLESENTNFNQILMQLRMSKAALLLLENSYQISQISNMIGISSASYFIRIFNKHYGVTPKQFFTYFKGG

[4] = biological target: T1, RhaS; experiment: In vivo dose-response, RhaS-activated rhaB-lacZ reporter fusion (β-galactosidase); type: cell-based, E. coli; details: full-length RhaS, rhaB-lacZ
Description: For dose-response studies, a rhaB-lacZ reporter strain was designed that allowed IPTG induction of RhaS or RhaS(163-278) expression from pHG165 (and thus rhaB-lacZ expression). The strain was constructed by introducing malP::lacIq into SME3000 via phage P1vir-mediated generalized transduction. First, SME3000 was transduced with Δcrp-3 zhc-511::Tn10 from SME1403, selecting for tetracycline resistance and screening for sorbitol deficiency (indicating Δcrp) using MacConkey sorbitol. SME3000 Acrp-3 zhc-511::Tn10 was transduced with crp^+ malP::lacI^q from SG22166, selecting for growth on minimal sorbitol and screening for maltose deficiency (indicating malP::lacI^q) using MacConkey maltose. Finally, SME3000 malP::lacI^q zhc-511::Tn10 was transduced with recA::cat from SME1048 by selecting for chloramphenicol resistance, to make strain SME3632.
(§1) The top hit identified in the screen was 1-ethyl-4-(nitromethyl)-3-quinolin-2-yl-4H-quinoline, Compound 2. The closely related compound, Compound 1,1-butyl-4-(nitromethyl)-3-quinolin-2-yl-4H-quinoline, was obtained from eMolecules, Inc. (Solana Beach, Calif.; catalog #3761-0013) or Princeton BioMolecular Research (Princeton, N.J.; catalog #OSSL—051168), with the Princeton named used here. […] Lysis/ONPG buffer (50 μL, as in Primary Screen) was added to each well and the plate was immediately placed into a PowerWave XS plate reader (BioTek Instruments, Inc., Winooski, Vt.), set to read the OD420 of each well every 15 min for 4 hr. […] Due to differences in kinetics of lacZ reporter expression, the rhaB-lacZ strains were analyzed at 4 hours and the hts-lacZ strain was analyzed at 1 hr. Percent activity was calculated for each condition as described above, using the single time point with appropriate OD420 levels for each strain. […] IC50 and maximal inhibition values were calculated using the XLfit add-in for Microsoft Excel (ID Business Solutions, Guildford, UK), and graphs were drawn using Prism (GraphPad, La Jolla, Calif.).

[5] = test system: LacI-repressed hts-lacZ fusion; experiment: LacI-repressed hts-lacZ control reporter fusion (β-galactosidase); type: cell-based, E. coli; details: hts-lacZ control (SME3359)
Description: The control strain for the secondary high-throughput screen and subsequent experiments was SME3359, and carries the LacI-repressed fusion and LacI-expressing pHG165lacI. The fusion consists of lacZ under the control of an artificial promoter (Phts) with an induced expression level similar to that of the induced rhaBAD operon. Phts is regulated by Lad and induced with IPTG. The Phts core promoter elements include a near-consensus −35 sequence and a −10 sequence followed by a lacO1 operator sequence that overlaps the transcription start site with the same spacing as lacO1 at lacZYA. To construct the upstream half of Phts, oligo 2829 was annealed to oligo 2788 and the primers were extended using the Expand High Fidelity PCR System (Roche Applied Science, Indianapolis, Ind.). The downstream half of the Phts promoter was constructed by similarly annealing and extending oligos 2789 and 2790.
as §1, with “2.” for “2. The closely related compound, Compound 1,1-butyl-4-(nitromethyl)-3-quinolin-2-yl-4H-quinoline, was obtained from eMolecules, Inc. (Solana Beach, Calif.; catalog #3761-0013) or Princeton BioMolecular Research (Princeton, N.J.; catalog #OSSL—051168), with the Princeton named used here.”
In vivo dose-response assays were performed using a procedure described previously. […] Bacterial cultures were mixed with varying concentrations of SE-1 (2.2% DMSO, final), induced with 6.5 mM IPTG for 3 h at 37° C., lysed and β-galactosidase activity was measured. […] IC50 values were calculated and graphs were drawn using Prism (GraphPad, La Jolla, Calif.).

Chain of VirF (P0A2T1 whole entry): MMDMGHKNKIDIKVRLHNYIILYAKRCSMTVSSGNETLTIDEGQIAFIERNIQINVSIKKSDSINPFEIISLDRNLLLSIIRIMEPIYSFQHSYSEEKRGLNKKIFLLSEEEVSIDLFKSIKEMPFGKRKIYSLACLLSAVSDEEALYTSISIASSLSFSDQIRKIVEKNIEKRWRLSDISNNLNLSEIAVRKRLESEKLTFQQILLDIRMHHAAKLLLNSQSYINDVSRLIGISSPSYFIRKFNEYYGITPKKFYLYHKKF

| SMILES | inhibition at 82.5 µM [1] [%] | inhibition at 82.5 µM [2] [%] | inhibition at 82.5 µM [3] [%] | inhibition of the RhaS-activated fusion [4] | inhibition of the LacI-repressed fusion [5] | % Inhibition at 82.5 μM VirF ([1]; 82.5 μM) [%] | % Inhibition at 82.5 μM RhaS [2] [%] | % Inhibition at 82.5 μM Rns ([3]; 82.5 μM) [%] |
| --- | --- | --- | --- | --- | --- | --- | --- | --- |
| CCCC[n+]1cc(-c2ccc3ccccc3n2)cc2ccccc21 [Compound I02] | 90 | 90 | 90 |  |  |  |  |  |
| C=CCCC[n+]1cc(-c2ccc3ccccc3n2)cc2ccccc21 [Compound A25] | 100 | 80 | 100 |  |  |  |  |  |
| CCN1C=C(c2ccc3ccccc3n2)C(C#N)c2ccccc21 (centres unmarked) [Compound A1] | 20 | 30 | 30 |  |  |  |  |  |
| CCC[n+]1cc(-c2ccc3ccccc3n2)cc2ccccc21 [Compound I11] | 100 | 80 | 90 |  |  |  |  |  |
| O=[N+]([O-])CC1C(c2ccc3ccccc3n2)=CN(Cc2ccc(Cl)cc2)c2ccccc21 (centres unmarked) [Compound A08] | 40 | 40 | 30 |  |  |  |  |  |
| CN1C=C(c2ccc3ccccc3n2)C(C[N+](=O)[O-])c2ccccc21 (centres unmarked) [Compound E1] | 100 | 90 | 80 |  |  |  |  |  |
| CCCCCC[n+]1cc(-c2ccc3ccccc3n2)cc2ccccc21 [Compound I12] | 100 | 90 | 100 |  |  |  |  |  |
| C[n+]1sc(Nc2ccccc2)nc1-c1ccccc1 [JS01] | 100 | 100 | 100 |  |  |  |  |  |
| CCCCN1C=C(c2ccc3ccccc3n2)C(C)c2ccccc21 (centres unmarked) [Compound A23] | 30 | 0 | 10 |  |  |  |  |  |
| Cc1cccc(C2=CN(Cc3ccc(Cl)cc3)c3ccccc3C2C[N+](=O)[O-])n1 (centres unmarked) [Compound A10] | 10 | 30 | 0 |  |  |  |  |  |
| CCN1C=C(c2ccc3ccccc3n2)C(C[N+](=O)[O-])c2ccccc21 (centres unmarked) [Compound 2, 1-ethyl-4-(nitromethyl)-3-quinolin-2-yl-4H-quinoline] | 100 | 90 | 60 | particularly robust, dose-dependent inhibition | substantially less inhibition |  |  |  |
| CN1C=C(c2ccc3ccccc3n2)C(C#N)c2ccccc21 (centres unmarked) [Compound C4] | 90 | 70 | 80 |  |  |  |  |  |
| CCCC[n+]1cc(-c2ccc3ccccc3c2)cc2ccccc21 [Compound I14] | 100 | 90 | 100 |  |  |  |  |  |
| CCCCN1C=C(c2ccc3ccccc3n2)C(C[N+](=O)[O-])c2ccccc21 (centres unmarked) [Compound A07] | 90 | 90 | 90 |  |  |  |  |  |
| O=[N+]([O-])CC1C(c2ccc3ccccc3n2)=CN(Cc2ccccc2)c2ccccc21 (centres unmarked) [Compound D3] | 70 | 60 | 60 |  |  |  |  |  |
| CCOC(=O)C(C(=O)OCC)C1C(c2ccc3ccccc3n2)=CN(C)c2ccccc21 (centres unmarked) [Compound A2] | 100 | 80 | 80 |  |  |  |  |  |
| CC(C)[n+]1cc(-c2ccc3ccccc3n2)cc2ccccc21 [Compound I10] | 100 | 80 | 90 |  |  |  |  |  |
| CN1C=C(c2ccc3ccccc3n2)C(c2c(-c3ccccc3)[nH]c3ccccc23)c2ccccc21 (centres unmarked) [Compound D2] | 40 | 10 | 10 |  |  |  |  |  |
| CCCCN1C=C(c2ccc3ccccc3n2)C(C#N)c2ccccc21 (centres unmarked) [Compound A01] | 20 | 30 | 20 |  |  |  |  |  |
| CCCCN1C=C(c2cccc(C)n2)C(C[N+](=O)[O-])c2ccccc21 (centres unmarked) [Compound A09] | 10 | 50 | 0 |  |  |  |  |  |
| Clc1ccc(C[n+]2cc(-c3ccc4ccccc4n3)cc3ccccc32)cc1.[Br-] [Compound I01] |  |  |  |  |  | 50 | 50 | 50 |
| Clc1ccc(C[n+]2cc(-c3ccc4ccccc4n3)cc3ccccc32)cc1 [Compound I03] | 60 | 60 | 50 |  |  |  |  |  |
| CCCCN1C=C(c2ccc3ccccc3n2)Cc2ccccc21 [Compound A21] | 70 | 60 | 80 |  |  |  |  |  |
| CCOC(=O)CN1C=C(c2ccc3ccccc3n2)C(C[N+](=O)[O-])c2ccccc21 (centres unmarked) [Compound A3] | 10 | 0 | 30 |  |  |  |  |  |
| CCCCCCCCC[n+]1cc(-c2ccc3ccccc3n2)cc2ccccc21 [Compound I13] | 100 | 100 | 100 |  |  |  |  |  |
| C[n+]1cc(-c2ccc3ccccc3n2)cc2ccccc21 [Compound A24] | 100 | 94 | 90 |  |  |  |  |  |
| CCCCN1C=C(c2cccc(C)n2)C(C#N)c2ccccc21 (centres unmarked) [Compound A03] | 0 | 40 | 10 |  |  |  |  |  |
| C[n+]1ccccc1/C=C/c1ccc(Br)cc1 [JS03] | 50 | 20 | 10 |  |  |  |  |  |
